Measurements: US9708314B2, “Heterocyclic amide compound” (NISSAN CHEMICAL INDUSTRIES, LTD., priority 2013, dated 2017)

Assays:
Type in all cases: in vivo
Setaria viridis = experiment: Test Example 4: herbicidal effect by application to foliage (diluvial soil, plastic box); settings: application to foliage, 320 g/ha
Procedure, shortened: (§1)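 Scores run from 0 (herbicidal ratio ≤5%) to 5 (≥90%, almost fully withered) and were assessed three weeks after foliar spraying. Seedlings had been raised for 14 days at 25-30° C in sterilized diluvial soil before treatment, with the emulsion diluted in water to the stated g/ha dose.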

Digitaria ciliaris = experiment: as above; settings: application to foliage, 320 g/ha
Procedure, shortened: as §1

Veronica persica = experiment: as above; settings: application to foliage, 320 g/ha
Procedure, shortened: as §1

Galium spurium = experiment: as above; settings: application to foliage, 320 g/ha
Procedure, shortened: as §1

Stellaria media = experiment: as above; settings: application to foliage, 320 g/ha
Procedure, shortened: as §1

Alopecurus myosuroides = experiment: as above; settings: application to foliage, 320 g/ha
Procedure, shortened: as §1

Leptochloa chinensis = experiment: Test Example 3: herbicidal effect by application to foliage (Wagner pot, water depth 0.1-0.5 cm); settings: Nineteenth Table; application to foliage; application herbicide amount 320 g/ha
Procedure, shortened: (§2)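 Visual 0–5 rating of herbicidal ratio, taken 3 weeks after foliar spray of a diluted emulsion formulation at rates expressed as g/ha. Plants had been sown in alluvial soil under 0.1–0.5 cm water and grown 14 days at 25–30 °C under glass before application.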

Cyperus difformis = experiment: as above; settings: Nineteenth Table; application to foliage; application herbicide amount 320 g/ha
Procedure, shortened: as §2

[1] = test system: Echinochloa crus-galli var. crus-galli; experiment: as above; settings: Nineteenth Table; application to foliage; application herbicide amount 320 g/ha
Procedure, shortened: as §2

| SMILES | herbicidal effect, G (Setaria viridis) (Setaria viridis) | herbicidal effect, F (Digitaria ciliaris) (Digitaria ciliaris) | herbicidal effect, R (Veronica persica) (Veronica persica) | herbicidal effect, Q (Galium spurium) (Galium spurium) | herbicidal effect, P (Stellaria media) (Stellaria media) | herbicidal effect, J (Alopecurus myosuroides) (Alopecurus myosuroides) | D (herbicidal effect grade) (Leptochloa chinensis) | E (herbicidal effect grade) (Cyperus difformis) | H (herbicidal effect grade) [1] |
| --- | --- | --- | --- | --- | --- | --- | --- | --- | --- |
| C=CCn1nnnc1NC(=O)c1ccc(C(F)(F)F)n2c(C(C)C)nnc12 [2-091] | 5 (Herbicidal ratio of 90% or more (almost completely withered)) | 5 (Herbicidal ratio of 90% or more (almost completely withered)) | 4 (Herbicidal ratio of 70% or more and less than 90%) | 4 (Herbicidal ratio of 70% or more and less than 90%) | 5 (Herbicidal ratio of 90% or more (almost completely withered)) | 2 (Herbicidal ratio of 20% or more and less than 40%) | 3 (Herbicidal ratio of 40% or more and less than 70%) | 4 (Herbicidal ratio of 70% or more and less than 90%) | 5 (Herbicidal ratio of 90% or more (almost completely withered)) |
| CC(C)c1nnc2c(C(=O)Nc3nnnn3Cc3ccc(Cl)cc3)ccc(C(F)(F)F)n12 [2-093] | 0 (Herbicidal ratio of 5% or less (almost no effect)) | 1 (Herbicidal ratio of 5% or more and less than 20%) | 2 (Herbicidal ratio of 20% or more and less than 40%) | 2 (Herbicidal ratio of 20% or more and less than 40%) | 5 (Herbicidal ratio of 90% or more (almost completely withered)) | 1 (Herbicidal ratio of 5% or more and less than 20%) | 2 (Herbicidal ratio of 20% or more and less than 40%) | 5 (Herbicidal ratio of 90% or more (almost completely withered)) | 1 (Herbicidal ratio of 5% or more and less than 20%) |
| C#CCN(C)c1nnc2c(C(=O)Nc3nnnn3C)ccc(C(F)(F)F)n12 [2-094] | 4 (Herbicidal ratio of 70% or more and less than 90%) | 4 (Herbicidal ratio of 70% or more and less than 90%) | 4 (Herbicidal ratio of 70% or more and less than 90%) | 3 (Herbicidal ratio of 40% or more and less than 70%) | 5 (Herbicidal ratio of 90% or more (almost completely withered)) | 1 (Herbicidal ratio of 5% or more and less than 20%) | 5 (Herbicidal ratio of 90% or more (almost completely withered)) | 5 (Herbicidal ratio of 90% or more (almost completely withered)) | 5 (Herbicidal ratio of 90% or more (almost completely withered)) |
| CN(CCC#N)c1nnc2c(C(=O)Nc3nnnn3C)ccc(C(F)(F)F)n12 [2-095] | 5 (Herbicidal ratio of 90% or more (almost completely withered)) | 5 (Herbicidal ratio of 90% or more (almost completely withered)) | 4 (Herbicidal ratio of 70% or more and less than 90%) | 4 (Herbicidal ratio of 70% or more and less than 90%) | 5 (Herbicidal ratio of 90% or more (almost completely withered)) | 4 (Herbicidal ratio of 70% or more and less than 90%) | 5 (Herbicidal ratio of 90% or more (almost completely withered)) | 5 (Herbicidal ratio of 90% or more (almost completely withered)) | 5 (Herbicidal ratio of 90% or more (almost completely withered)) |
| Cn1nnnc1NC(=O)c1ccc(C(F)(F)F)n2c(=O)n(C)nc12 [6-002] | 3 (Herbicidal ratio of 40% or more and less than 70%) | 4 (Herbicidal ratio of 70% or more and less than 90%) | 4 (Herbicidal ratio of 70% or more and less than 90%) | 3 (Herbicidal ratio of 40% or more and less than 70%) | 5 (Herbicidal ratio of 90% or more (almost completely withered)) | 0 (Herbicidal ratio of 5% or less (almost no effect)) | 5 (Herbicidal ratio of 90% or more (almost completely withered)) | 4 (Herbicidal ratio of 70% or more and less than 90%) | 5 (Herbicidal ratio of 90% or more (almost completely withered)) |
| CCn1nc2c(C(=O)Nc3nnnn3C)ccc(C(F)(F)F)n2c1=O [6-004] | 4 (Herbicidal ratio of 70% or more and less than 90%) | 5 (Herbicidal ratio of 90% or more (almost completely withered)) | 3 (Herbicidal ratio of 40% or more and less than 70%) | 4 (Herbicidal ratio of 70% or more and less than 90%) | 4 (Herbicidal ratio of 70% or more and less than 90%) | 1 (Herbicidal ratio of 5% or more and less than 20%) | 5 (Herbicidal ratio of 90% or more (almost completely withered)) | 2 (Herbicidal ratio of 20% or more and less than 40%) | 4 (Herbicidal ratio of 70% or more and less than 90%) |
| CC(C)c1nc2c(C(=O)Nc3nnnn3C)ccc(C(F)(F)F)n2n1 [7-002] | 2 (Herbicidal ratio of 20% or more and less than 40%) | 3 (Herbicidal ratio of 40% or more and less than 70%) | 3 (Herbicidal ratio of 40% or more and less than 70%) | 3 (Herbicidal ratio of 40% or more and less than 70%) | 4 (Herbicidal ratio of 70% or more and less than 90%) | 0 (Herbicidal ratio of 5% or less (almost no effect)) | 4 (Herbicidal ratio of 70% or more and less than 90%) | 4 (Herbicidal ratio of 70% or more and less than 90%) | 4 (Herbicidal ratio of 70% or more and less than 90%) |
